The values that follow come from US9708321B2, “Spiro-quinazolinone derivatives and their use as positive allosteric modulators of mGluR4” (Merck Patent GmbH, priority 2013, dated 2017).

The assay concerns the target T1, hmGluR4 (Homo sapiens, UniProt Q14833).
T1 construct: host or cells: HEK293T
Put plainly: HEK-293 mGluR4 cells cAMP assay with EC20 L-Glutamate (HTRF). It counts as cell-based. The procedure: II. Biological Assays HEK-293 mGluR4 Cells cAMP Assay with EC20 L-Glutamate
Using mGluR4 suspension cell format, 10 μM Forskolin (final conc.) used to induce the production of cAMP.
Test the positive allosteric activity of the compounds of the invention at EC20 (2.3 μM for mGluR4 and 4.3 μM for mGluR6) L-Glutamate,
cAMP dymanic2 kit is intended for the direct quantitative determination of cAMP and its principle is based on HTRF technology.
• Cells: HEK293T mGluR4 cells from Multispan, cat# C1191a lot# C1191a-040910 • Culture Media: DMEM+GlutaMAX1+10% dialyzed FBS, 100 mM Sodium Pyruvate, 1 ug/ml puromycin. • Glutamine Starvation Media: DMEM without GlutaMax for plating the cells (glutamine starvation overnight). DMEM high Glucose, without phenol red, glutamine, or sodium pyruvate+10% dialyzed FBS, 100 mM Sodium Pyruvate, 1 ug/ml puromycin, 10 mM Hepes. • Hanks' balanced Salt Solution, HBSS from Invitrogen • Greiner 384 well white low volume high base plate (784075) • cAMP dynamic2 from Cisbio Bioassays • Glutamate: L-Glutamaic acid, monosodium salt, Monohydrate, 98%, from Sigma-Aldrich • Cell Preparation: split cells at 80%-90% confluence. The following day, rinse the cells with DMEM without GlutaMax and change to Glutamine Starvation Media. Incubate overnight. Assay: • Prepare compound plate: Perform compound serial dilution (uses Matrix 4341 plate), using the Bravo liquid handling platform protocol (compound serial dilution) which adds DMSO to columns 1-24 (except cols. 3 and 13). Serial dilute compounds located in columns 3 and 13 at a 1:3 ratio; 10 points (10 ul of 3 mM compound into 20 ul DMSO). Use the Bravo liquid handling platform to transfer 1 ul from the serial dilution plate into Matrix 4314 plate to create stamp plates. Prepare Compound Dilution Buffer: • Dilute 20 mM Forskolin (in DMSO) stock solution in HBSS buffer to make a 20 uM solution (forskolin buffer; 2× solution). To the forskolin buffer, add glutamate to a concentration of 8 uM (compound dilution buffer; 2× EC20 glutamate and forskolin). • Using a multidrop, add 50 ul/well of compound dilution buffer to columns 1-22 of the 2 ul compound stamp plate. Columns 23 and 24 receive forskolin buffer containing 400 uM glutamate (EC100 glutamate; 2× solution). Columns 1 and 2 receive compound dilution buffer containing EC20 glutamate, which is the basal control. • Add a glutamate dose response to row P of compound plate. Prepare the dose response by serial diluting glutamate at a 1:3 ratio in forskolin buffer starting at 2 mM glutamate (2×). Dilute the glutamate 9 times and transfer to compound plate. Prepare Cell Plates: • Harvest cells: Rinse cells with pre-warmed HBSS-10 mM HEPES (without Ca Mg) and dissociate the cells from the flask with versene. Centrifuge the cells, remove the supernatant and suspend in pre-warmed HBSS+10 mM Hepes. Count the cells and centrifuge. Remove the supernatant and suspend the cells in HBSS+Hepes (with Ca Mg) at a density of 400,000 cells/ml. Perform Assay: • Dispense 5 ul from the diluted compound plate into Greiner low volume cell plate using the Bravo liquid handling platform. Using a Multidrop with the small tubing cassette, dispense 5 ul of cells (2000 cells/well) onto the compounds contained in the low volume plates. Incubate the cells at 37° C., 5% CO2 for 30 minutes in the incubator. Assay for cAMP: • Prepare cAMP-d2 and anti-cAMP-Crytate according to the instructions for the two step assay (see Cisbio manual) and add 10 ul of the mixed reagent to each well of the assay plate using the Multidrop. Incubate at room temperature for 60 minutes and read on the Envision plate reader using the mGluR low volume cAMP HTRF 384 well protocol.
In general terms: Cyclic AMP is a second messenger, typically raised through Gs and lowered through Gi signalling.

[1] abbreviates: positive allosteric activity at EC20 L-Glutamate, 10 μM Forskolin, HEK293T mGluR4 cells, cAMP HTRF, read-out: hrmGluR4/HEK293T-hmGluR4 (EC50).

Like-named read-outs stand apart in the source and are kept apart here.

T1 sequence (Q14833 33-912): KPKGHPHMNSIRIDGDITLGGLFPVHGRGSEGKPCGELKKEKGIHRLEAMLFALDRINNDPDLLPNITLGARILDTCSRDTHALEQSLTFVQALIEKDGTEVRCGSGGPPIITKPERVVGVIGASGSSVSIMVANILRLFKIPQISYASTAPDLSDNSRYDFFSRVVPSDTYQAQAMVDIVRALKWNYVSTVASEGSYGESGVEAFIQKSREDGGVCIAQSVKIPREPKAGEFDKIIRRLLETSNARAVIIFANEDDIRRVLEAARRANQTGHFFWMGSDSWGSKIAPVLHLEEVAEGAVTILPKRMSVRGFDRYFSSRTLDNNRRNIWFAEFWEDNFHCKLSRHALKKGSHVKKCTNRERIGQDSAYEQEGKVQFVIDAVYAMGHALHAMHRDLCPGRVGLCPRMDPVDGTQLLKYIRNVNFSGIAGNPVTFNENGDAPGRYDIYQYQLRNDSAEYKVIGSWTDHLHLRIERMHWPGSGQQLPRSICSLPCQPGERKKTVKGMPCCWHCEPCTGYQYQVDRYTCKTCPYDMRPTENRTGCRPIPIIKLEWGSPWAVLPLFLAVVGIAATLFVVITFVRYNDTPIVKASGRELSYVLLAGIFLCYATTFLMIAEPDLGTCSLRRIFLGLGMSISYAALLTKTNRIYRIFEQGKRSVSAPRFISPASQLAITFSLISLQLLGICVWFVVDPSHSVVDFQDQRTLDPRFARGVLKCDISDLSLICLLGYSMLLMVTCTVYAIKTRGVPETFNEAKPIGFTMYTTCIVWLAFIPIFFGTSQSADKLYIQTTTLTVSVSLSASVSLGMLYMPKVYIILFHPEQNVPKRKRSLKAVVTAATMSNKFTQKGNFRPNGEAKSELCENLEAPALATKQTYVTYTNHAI

Consider `O=C1c2ccc(Br)cc2NC2(CCN(Cc3ccc(F)c(F)c3)CC2)N1c1ccc(OC(F)(F)F)cc1` [Compound 32, 7′-Bromo-1-(3,4-difluorobenzyl)-3′-(4-(trifluoromethoxy)phenyl)-1′H-spiro[piperidine-4,2′-quinazolin]-4′(3′H)-one], for which, under setting [1], the EC50 was under 1000 nM.

On to `O=C1c2ccc(Br)cc2NC2(CCN(Cc3ccc(F)c(F)c3)CC2)N1c1ccc(Cl)cc1` [Compound 25, 7′-Bromo-3′-(4-chlorophenyl)-1-(3,4-difluorobenzyl)-1′H-spiro[piperidine-4,2′-quinazolin]-4′(3′H)-one], for which, under setting [1], the EC50 is under 1000 nM.

As to `COc1ccc(N2C(=O)c3ccc(C)cc3NC23CCN(Cc2ccc(F)c(F)c2)CC3)cc1` [Compound 60], the EC50 under setting [1] was under 1000 nM.

Regarding `O=C1c2ccc(Br)cc2NC2(CCN(Cc3ccnc4ccccc34)CC2)N1c1ccc(OC(F)(F)F)cc1` [Compound 47, 7′-Bromo-1-(quinolin-4-ylmethyl)-3′-(4-(trifluoromethoxy)phenyl)-1′H-spiro[piperidine-4,2′-quinazolin]-4′(3′H)-on], under setting [1], the EC50 was under 1000 nM.

With `COc1ccc(N2C(=O)c3ccccc3NC23CCN(Cc2ccccc2Cl)CC3)cc1` [Compound 111, 1-(2-Chlorobenzyl)-3′-(4-methoxyphenyl)-1′H-spiro[piperidine-4,2′-quinazolin]-4′(3′H)-one], the EC50 under setting [1] was 1000 to 10000 nM.

With `COc1ccc(N2C(=O)c3ccccc3NC23CCN(Cc2ccc(Cl)c(Cl)c2)CC3)cc1` [Compound 54, 1-(3,4-Dichlorobenzyl)-3′-(4-methoxyphenyl)-1′H-spiro[piperidine-4,2′-quinazolin]-4′(3′H)-one], the EC50 under setting [1] is under 1000 nM.

For the molecule `O=C1c2ccc(-c3ccncn3)cc2NC2(CCN(Cc3ccc(F)c(F)c3)CC2)N1c1ccc(OC(F)(F)F)cc1` [Compound 9, 1-(3,4-Difluorobenzyl)-7′-(pyrimidin-4-yl)-3′-(4-(trifluoromethoxy)phenyl)-1′H-spiro[piperidine-4,2′-quinazolin]-4′(3′H)-one], the EC50 under setting [1] is under 1000 nM.

Consider `COc1ccc(N2C(=O)c3ccc(-c4cccnc4)cc3NC23CCN(Cc2ccc(F)c(F)c2)CC3)cc1` [Compound 40, 1-(3,4-Difluorobenzyl)-3′-(4-methoxyphenyl)-7′-(pyridin-3-yl)-1′H-spiro[piperidine-4,2′-quinazolin]-4′(3′H)-one], for which, under setting [1], the EC50 is under 1000 nM.

In the case of `COc1ccc(N2C(=O)c3ccccc3NC23CCN(Cc2cccc(OC(F)(F)F)c2)CC3)cc1` [Compound 55, 3′-(4-Methoxyphenyl)-1-(3-(trifluoromethoxy)benzyl)-1′H-spiro[piperidine-4,2′-quinazolin]-4′(3′H)-one], the EC50 under setting [1] is under 1000 nM.

As to `COCCOc1ccc2c(c1)NC1(CCN(Cc3ccc(F)c(F)c3)CC1)N(c1ccc(OC(F)(F)F)cc1)C2=O` [Compound 121, 1-(3,4-Difluorobenzyl)-7′-(2-methoxyethoxy)-3′-(4-(trifluoromethoxy)phenyl)-1′H-spiro[piperidine-4,2′-quinazolin]-4′(3′H)-one], the EC50 under setting [1] lay in the range of 1000 to 10000 nM.

For the molecule `COc1ccc(N2C(=O)c3ccccc3NC23CN(Cc2ccc(F)cc2)C3)cc1` [Compound 101, 1-(4-Fluorobenzyl)-3′-(4-methoxyphenyl)-1′H-spiro[azetidine-3,2′-quinazolin]-4′(3′H)-one], the EC50 under setting [1] was 1000 to 10000 nM.

On to `COc1ccc(N2C(=O)c3ccc(-c4ccccn4)cc3NC23CCN(Cc2ccc(F)c(F)c2)CC3)cc1` [Compound 73, 1-(3,4-Difluorobenzyl)-3′-(4-methoxyphenyl)-7′-(pyridin-2-yl)-1′H-spiro[piperidine-4,2′-quinazolin]-4′(3′H)-one], for which the EC50 under setting [1] lay within 1000 to 10000 nM.

As for `CC(=O)c1ccc2c(c1)NC1(CCN(Cc3ccc(F)c(F)c3)CC1)N(c1ccc(OC(F)(F)F)cc1)C2=O` [Compound 77, 7′-Acetyl-1-(3,4-difluorobenzyl)-3′-(4-(trifluoromethoxy)phenyl)-1′H-spiro[piperidine-4,2′-quinazolin]-4′(3′H)-one], the EC50 under setting [1] fell in the range of 1000 to 10000 nM.

`COc1ccc(N2C(=O)c3ccc(-c4ccccc4)cc3NC23CCN(Cc2ccc(F)c(F)c2)CC3)cc1` [Compound 19, 1-(3,4-Difluorobenzyl)-3′-(4-methoxyphenyl)-7′-phenyl-1′H-spiro[piperidine-4,2′-quinazolin]-4′(3′H)-one]: under setting [1], the EC50 was under 1000 nM.

Turning to `O=C1c2ccc(Br)cc2NC2(CCN(Cc3ccccn3)CC2)N1c1ccc(OC(F)(F)F)cc1` [Compound 103, 7′-Bromo-1-(pyridin-2-ylmethyl)-3′-(4-(trifluoromethoxy)phenyl)-1′H-spiro[piperidine-4,2′-quinazolin]-4′(3′H)-one], the EC50 under setting [1] was in the range of 1000 to 10000 nM.

Consider `CCC(c1ccccc1)N1CCC2(CC1)Nc1cc(Br)ccc1C(=O)N2c1ccc(OC(F)(F)F)cc1` (stereo not shown) [Compound 48, 7′-Bromo-1-(1-phenylpropyl)-3′-(4-(trifluoromethoxy)phenyl)-1′H-spiro[piperidine-4,2′-quinazolin]-4′(3′H)-one], for which the EC50 under setting [1] is under 1000 nM.

`COc1ccc(N2C(=O)c3ccccc3NC23CN(Cc2ccccc2OC(F)(F)F)C3)cc1` [Compound 65, 3′-(4-Methoxyphenyl)-1-(2-(trifluoromethoxy)benzyl)-1′H-spiro[azetidine-3,2′-quinazolin]-4′(3′H)-one]: the EC50 under setting [1] is under 1000 nM.

`COc1ccc(N2C(=O)c3ccc(Br)cc3OC23CCN(Cc2ccc(F)c(F)c2)CC3)cc1` [Compound 108, 7-Bromo-1′-(3,4-difluorobenzyl)-3-(4-methoxyphenyl)spiro[benzo[e][1,3]oxazine-2,4′-piperidin]-4(3H)-one]: the EC50 under setting [1] lay within 1000 to 10000 nM.

In the case of `COc1ccc(N2C(=O)c3ccccc3NC23CN(Cc2ccc(Cl)s2)C3)cc1` [Compound 98, 1-((5-Chlorothiophen-2-yl)methyl)-3′-(4-methoxyphenyl)-1′H-spiro[azetidine-3,2′-quinazolin]-4′(3′H)-one], under setting [1], the EC50 was in the range of 1000 to 10000 nM.

Regarding `COc1ccc(N2C(=O)c3ccccc3NC23CN(Cc2ccccc2C(F)(F)F)C3)cc1` [Compound 81, 3′-(4-Methoxyphenyl)-1-(2-(trifluoromethyl)benzyl)-1′H-spiro[azetidine-3,2′-quinazolin]-4′(3′H)-one], the EC50 under setting [1] was in the range of 1000 to 10000 nM.

Take `O=C(Nc1ccc(OC(F)(F)F)cc1)c1ccc(Br)cc1O` [Compound 125, 4-Bromo-2-hydroxy-N-(4-trifluoromethoxy-phenyl)-benzamide]: under setting [1], the EC50 was under 1000 nM.

Regarding `COc1ccc(N2C(=O)c3ccccc3CC23CCN(Cc2ccc(F)c(F)c2)CC3)cc1` [Compound 126, 1′-(3,4-difluorobenzyl)-2-(4-methoxyphenyl)-2,4-dihydro-1H-spiro[isoquinoline-3,4′-piperidin]-1-one], the EC50 lay in the range of 1000 to 10000 nM.

As to `CCc1ccc(CN2CC3(C2)Nc2ccccc2C(=O)N3c2ccc(OC)cc2)cc1` [Compound 112, 1-(4-Ethylbenzyl)-3′-(4-methoxyphenyl)-1′H-spiro[azetidine-3,2′-quinazolin]-4′(3′H)-one], the EC50 under setting [1] is 1000 to 10000 nM.

For the molecule `COc1ccc(N2C(=O)c3ccccc3NC23CCN(Cc2ccccc2C)CC3)cc1` [Compound 109, 3′-(4-Methoxyphenyl)-1-(2-methylbenzyl)-1′H-spiro[piperidine-4,2′-quinazolin]-4′(3′H)-one], under setting [1], the EC50 lay in the range of 1000 to 10000 nM.

As to `N#Cc1ccc2c(c1)NC1(CCN(Cc3ccc(F)c(F)c3)CC1)N(c1ccc(OC(F)(F)F)cc1)C2=O` [Compound 79, 1-(3,4-Difluorobenzyl)-4′-oxo-3′-(4-(trifluoromethoxy)phenyl)-3′,4′-dihydro-1′H-spiro[piperidine-4,2′-quinazoline]-7′-carbonitrile], the EC50 under setting [1] was in the range of 1000 to 10000 nM.
